From patent US20210008161A1, “METHODS AND COMPOSITIONS FOR IMPROVED HOMOLOGY DIRECTED REPAIR” (CRISPR THERAPEUTICS AG, priority 2019, published 2021) come the findings set out here.

What all share (format): cell-based, human
Experiment [1] has as its system HEK293 T cells. As to the kind of experiment: BFP to GFP fluorescent reporter assay of HDR efficiency (AAVS1 locus). As to the method:
An in vitro assay was conducted to determine the ability of various inhibitors and enhancers to improve the efficiency of HDR repair in HEK293 T cells. Specifically, a fluorescent reporter-based screening approach was developed to identify molecules that enhance gene-editing by HDR. A reporter system was generated in HEK293 T cells comprising a genomic AAVS1 locus that encoded either a blue fluorescent protein (BFP) or a green fluorescent protein (GFP) within the AAVS1 locus. A gene encoding BFP can be converted to a gene encoding GFP by substitution of cytosine at position 199 to uridine (e.g., a C to U transition at position 199). By introducing a DSB within the BFP gene using a CRISPR/Cas9 gene-editing system, a homology donor DNA encoding the nucleotide substitution can be used to edit the BFP gene to a GFP gene by HDR repair. Thus, a gene edit that induces a C to U transition at position 199 results in a change in cellular fluorescence. A change in the fluorescence of the cell measured by flow cytometry can be used to quantify efficiency of HDR repair. Additionally, the reverse gene edit can be performed for an AAVS1 locus encoding a GFP gene, wherein a GFP can be converted to BFP by substitution of uridine at position 199 to cytosine.
To create the reporter system, an AAV-based homology donor DNA encoding either BFP or GFP was created. The AAV-BFP or AAV-GFP donor was flanked by homology arms that were 1000 base pairs in length and expression of BFP or GFP was driven by the MND promoter (e.g., a synthetic promoter that contains the U3 region of a modified Moloney murine leukemia virus long term terminal repeat with myeloproliferative sarcoma virus enhancer and deleted negative control region, SEQ ID NO: 58). The viral DNA was packaged into capsids of adeno-associated virus serotype 6 (AAV6) vector. Either the BFP or GFP donor was introduced using the AAV6 vector into the AAVS1 locus in HEK293 T cells by homologous recombination using CRISPR-Cas9 as follows: purified Cas9 protein was complexed with two different single gRNAs (sgRNAs) targeting the AAVS1 locus at SEQ ID NO: 3 (spacer sequence identified by SEQ ID NO: 4; gRNA obtained from Maxcyte) or SEQ ID NO: 5 (spacer sequence identified by SEQ ID NO: 6; gRNA obtained from Thermo Fisher). Cas9 protein used in the Exemplary section provided herein refers to Cas9 polypeptide derived from S. pyogenes (SpCas9), unless indicated otherwise.
The Cas9-sgRNA complex was electroporated into the HEK293 T cells using the Lonza Nucleofector program CM-130. Approximately, 2 hours after electroporation, the cells were infected with various viral doses of AAV6 encoding a BFP (SEQ ID NO: 44) or GFP homology donor (SEQ ID NO: 47). One week later, cells were analyzed by flow cytometry to verify integration and expression of BFP or GFP in the AAVS1 locus. HEK293 T cells expressing BFP or GFP were sorted into single cells in 96-well plates. After ˜2 weeks of growth, DNA extracted from individual cells was analyzed for precise integration of the respective BFP or GFP gene into the AAVS1 locus by long-range PCR. This PCR analysis allowed for determination of whether the BFP/GFP gene was integrated in one or both alleles of the AAVS1 locus.
To introduce a gene edit that converts BFP to GFP, cells were electroporated with ribonucleoprotein (RNP) comprised of Cas9 and sgRNA that targets the BFP gene encoded in the AAVS1 locus. The sgRNA targeted a sequence in the BFP gene identified by SEQ ID NO: 7 (sgRNA spacer sequence identified by SEQ ID NO: 8). The sgRNA were prepared using a standard sgRNA cassette specific to SpCas9, as indicated by SEQ ID NO: 2 (wherein a, c, g, u represent 2′ O-methyl phosphorothioate nucleotides; s represents phosphorothioate nucleotides; and A, C, G, U, N represent canonical RNA nucleotides). The gRNAs used in the Exemplary section provided herein were sgRNAs prepared with the SpCas9 sgRNA cassette unless indicated otherwise. […]

Experiment [2] relates to HEK293 T cells. As to the kind of experiment: Indel formation at GFP gene in AAVS1 locus by TIDE analysis. Particulars: regardless of ssODN or gRNA, compared to DMSO control, FIG. 2C-2D. As to the method:
The effect of DNA PK inhibition by Nu7441 correction of a DSB by the NHEJ pathway (e.g., introduce an indel at the DSB site) or HDR pathway (e.g., introduce a gene mutation encoded by a homology donor at the DSB site) was assessed using the reporter system described in Example 1. In this case gene-editing was evaluated in HEK293 T cells expressing GFP in the AAVS1 locus. To introduce a gene edit that converts GFP to BFP, cells were electroporated with ribonucleoprotein (RNP) comprised of Cas9 and gRNA1 (GFP target sequence identified by SEQ ID NO: 9; sgRNA spacer sequence identified by SEQ ID NO: 10) or gRNA2 (GFP target sequence identified by SEQ ID NO: 11; sgRNA spacer identified by SEQ ID NO: 12) that targets the GFP gene encoded in the AAVS1 locus. The cells were also transfected with ssODNs that encoded the gene correction necessary to convert GFP to BFP and homology arms complimentary to the sequence upstream and downstream of the target gene cut site. The efficiency of HDR repair was determined by measuring the level of cell BFP fluorescence. The efficiency of cutting (indel information) was monitored by TIDE analysis.
Shown in FIGS. 2C-2D is a measure of indel formation performed by TIDE analysis for the same edits that are described for FIGS. 2A-2B. […] Thus, the DNA PK inhibitor Nu7441 achieves reduced repair of a DSB by the NHEJ pathway when a homology donor is provided.

Experiment [3] has as its system HEK293 T cells. As to the kind of experiment: Gene correction by NHEJ repair at GSD1a locus with dsDNA donors. Particulars: dsDNA donor 50-0 or 150-0, 2.5 μM Nu7441, 1.25 μM SCR7 or 10 μM RS-1, vs DMSO alone, FIG. 3. Here is the method:
The effect of Nu7441 treatment on gene correction by the NHEJ pathway was also evaluated. To do so, the cells were transfected with two different dsDNA donors: 50-0 (SEQ ID NO: 37) or 150-0 (SEQ ID NO: 38). Cells were edited with 1.5 μg dsDNA donor. These dsDNA donors, lacking homology arms, introduce a second 3′ splice site into exon 2 at the GSD1a locus when inserted into the cut site induced by the Cas9-guide complex by NHEJ repair. The cells were treated with 2.5 μM Nu7441, 1.25 μM SCR7, or 10 μM RS-1 and gene correction by NHEJ repair was evaluated. […] Treatment with SCR7 or RS-1 had no effect over DMSO alone.

The mark [4] stands for this setting: 1.25 μM SCR7 or 10 μM RS-1, ssODN1-4, relative to DMSO alone, FIG. 1A.

On to `O=c1cc(N2CCOCC2)oc2c(-c3cccc4c3sc3ccccc34)cccc12` [Nu7441], for which the “fold higher HDR efficiency” value in the experiment on HEK293 T cells [1] (2.5 μM Nu7441, each of ssODN1-4, FIG. 1A) was “approximately 3 fold”. Also, the “fold higher HDR efficiency, high vs low concentration” value with HEK293 T cells [1] (2.5 μM vs 0.6 μM, FIG. 1B, 1C) is listed as “approximately 1.5 fold”. In the experiment with HEK293 T cells [1] (concentrations higher than 2.5 μM), the “HDR efficiency at higher concentrations” value is listed as “no further improvement”. Also, the “improvement in HDR efficiency, dose dependence” value in the experiment on HEK293 T cells [1] (varied doses, FIG. 1B) is listed as “dose-dependent”. The “indel formation at the DSB site” value with HEK293 T cells [2] is “decreased”. The “gene correction by NHEJ repair” value in the experiment on HEK293 T cells [3] is listed as “substantial decrease”.
With `O=C(Nc1ccc(Br)cc1)c1ccc(Br)c(S(=O)(=O)NCc2ccccc2)c1` [RS-1], in the experiment on HEK293 T cells [1] (setting [4]), the HDR efficiency result is on record as “no improvement”. For the same compound, the “indel formation at the DSB site” value with HEK293 T cells [2] is “reduction”. Further, the “gene correction by NHEJ repair” value in the experiment with HEK293 T cells [3] is on record as “no effect”.
The corresponding values for `O=c1[nH]c(=S)[nH]c(N=Cc2ccccc2)c1N=Cc1ccccc1` [SCR7] are “no improvement”, “reduction” and “no effect”.
As to “i53: polypeptide inhibitor of 53BP1 (SEQ ID NO: 70), introduced as an mRNA-encoded protein (ORF SEQ ID NO: 69)”, in the experiment with HEK293 T cells [1] (different doses of mRNA encoding i53, ssODN Hn-91-61 and Ht-39-88, FIG. 1D), the HDR efficiency result is listed as “increased”.
